Assays:
[1] = relative permittivity at various frequencies (dimensionless); xn = mol fraction of the nth substance listed; settings: 101.3 kPa, Liquid, HP4284A LCR Meter with HP16452A measuring cell
[2] = xn = mol fraction of the nth substance listed; settings: 101.3 kPa, Liquid

COCCOCCOCCOC [2,5,8,11-tetraoxadodecane] + CCCCCCCCC
Settings | mass density [kg/m3] | relative permittivity
[1], 288.15 K, x1 = 0.0979 | – | 2.32
[1], 288.15 K, x1 = 0.1997 | – | 2.72
[1], 288.15 K, x1 = 0.2461 | – | 2.91
[1], 288.15 K, x1 = 0.2965 | – | 3.15
[1], 288.15 K, x1 = 0.3969 | – | 3.65
[1], 288.15 K, x1 = 0.5043 | – | 4.24
[1], 288.15 K, x1 = 0.6013 | – | 4.83
[1], 288.15 K, x1 = 0.6972 | – | 5.48
[1], 288.15 K, x1 = 0.7975 | – | 6.22
[1], 288.15 K, x1 = 0.8996 | – | 7.02
[1], 288.15 K, x1 = 0.9503 | – | 7.44
[1], 293.15 K, x1 = 0.0979 | – | 2.3
[1], 293.15 K, x1 = 0.1999 | – | 2.7
[1], 293.15 K, x1 = 0.2483 | – | 2.9
[1], 293.15 K, x1 = 0.2962 | – | 3.12
[1], 293.15 K, x1 = 0.3968 | – | 3.61
[1], 293.15 K, x1 = 0.5047 | – | 4.2
[1], 293.15 K, x1 = 0.6015 | – | 4.78
[1], 293.15 K, x1 = 0.6957 | – | 5.4
[1], 293.15 K, x1 = 0.7975 | – | 6.11
[1], 293.15 K, x1 = 0.8996 | – | 6.9
[1], 293.15 K, x1 = 0.951 | – | 7.31
[1], 298.15 K, x1 = 0.0975 | – | 2.3
[1], 298.15 K, x1 = 0.2091 | – | 2.72
[1], 298.15 K, x1 = 0.2569 | – | 2.92
[1], 298.15 K, x1 = 0.2955 | – | 3.08
[1], 298.15 K, x1 = 0.4035 | – | 3.61
[1], 298.15 K, x1 = 0.5005 | – | 4.13
[1], 298.15 K, x1 = 0.5944 | – | 4.67
[1], 298.15 K, x1 = 0.6956 | – | 5.32
[1], 298.15 K, x1 = 0.8007 | – | 6.04
[1], 298.15 K, x1 = 0.901 | – | 6.79
[1], 298.15 K, x1 = 0.9489 | – | 7.17
[1], 303.15 K, x1 = 0.099 | – | 2.28
[1], 303.15 K, x1 = 0.2015 | – | 2.66
[1], 303.15 K, x1 = 0.2491 | – | 2.86
[1], 303.15 K, x1 = 0.297 | – | 3.06
[1], 303.15 K, x1 = 0.4001 | – | 3.56
[1], 303.15 K, x1 = 0.4967 | – | 4.06
[1], 303.15 K, x1 = 0.596 | – | 4.63
[1], 303.15 K, x1 = 0.6976 | – | 5.27
[1], 303.15 K, x1 = 0.7976 | – | 5.93
[1], 303.15 K, x1 = 0.9012 | – | 6.69
[1], 303.15 K, x1 = 0.9496 | – | 7.06
[1], 308.15 K, x1 = 0.0979 | – | 2.26
[1], 308.15 K, x1 = 0.1997 | – | 2.63
[1], 308.15 K, x1 = 0.2461 | – | 2.81
[1], 308.15 K, x1 = 0.2965 | – | 3.03
[1], 308.15 K, x1 = 0.3969 | – | 3.49
[1], 308.15 K, x1 = 0.5043 | – | 4.05
[1], 308.15 K, x1 = 0.6013 | – | 4.6
[1], 308.15 K, x1 = 0.6972 | – | 5.19
[1], 308.15 K, x1 = 0.7975 | – | 5.85
[1], 308.15 K, x1 = 0.8996 | – | 6.58
[1], 308.15 K, x1 = 0.9503 | – | 6.96
[1], 318.15 K, x1 = 0.0987 | – | 2.24
[1], 318.15 K, x1 = 0.2016 | – | 2.6
[1], 318.15 K, x1 = 0.248 | – | 2.78
[1], 318.15 K, x1 = 0.2973 | – | 2.97
[1], 318.15 K, x1 = 0.4 | – | 3.43
[1], 318.15 K, x1 = 0.502 | – | 3.94
[1], 318.15 K, x1 = 0.6006 | – | 4.48
[1], 318.15 K, x1 = 0.6982 | – | 5.07
[1], 318.15 K, x1 = 0.8053 | – | 5.75
[1], 318.15 K, x1 = 0.9018 | – | 6.42
[1], 318.15 K, x1 = 0.9503 | – | 6.75
[1], 328.15 K, x1 = 0.1007 | – | 2.23
[1], 328.15 K, x1 = 0.2003 | – | 2.57
[1], 328.15 K, x1 = 0.2486 | – | 2.75
[1], 328.15 K, x1 = 0.2973 | – | 2.95
[1], 328.15 K, x1 = 0.3958 | – | 3.38
[1], 328.15 K, x1 = 0.496 | – | 3.86
[1], 328.15 K, x1 = 0.5967 | – | 4.38
[1], 328.15 K, x1 = 0.6922 | – | 4.92
[1], 328.15 K, x1 = 0.798 | – | 5.55
[1], 328.15 K, x1 = 0.8997 | – | 6.21
[1], 328.15 K, x1 = 0.9487 | – | 6.53
[2], 288.15 K, x1 = 0.0981 | 746.25 | –
[2], 288.15 K, x1 = 0.1985 | 771.84 | –
[2], 288.15 K, x1 = 0.2459 | 784.06 | –
[2], 288.15 K, x1 = 0.2944 | 796.71 | –
[2], 288.15 K, x1 = 0.3937 | 822.83 | –
[2], 288.15 K, x1 = 0.4957 | 850.01 | –
[2], 288.15 K, x1 = 0.5957 | 876.93 | –
[2], 288.15 K, x1 = 0.6952 | 904 | –
[2], 288.15 K, x1 = 0.7937 | 931.06 | –
[2], 288.15 K, x1 = 0.9005 | 960.86 | –
[2], 288.15 K, x1 = 0.9494 | 974.71 | –
[2], 293.15 K, x1 = 0.1006 | 742.71 | –
[2], 293.15 K, x1 = 0.1961 | 766.97 | –
[2], 293.15 K, x1 = 0.2461 | 779.84 | –
[2], 293.15 K, x1 = 0.2982 | 793.34 | –
[2], 293.15 K, x1 = 0.3979 | 819.48 | –
[2], 293.15 K, x1 = 0.4995 | 846.49 | –
[2], 293.15 K, x1 = 0.5939 | 871.77 | –
[2], 293.15 K, x1 = 0.6986 | 900.11 | –
[2], 293.15 K, x1 = 0.7979 | 927.37 | –
[2], 293.15 K, x1 = 0.9022 | 956.37 | –
[2], 293.15 K, x1 = 0.95 | 969.87 | –
[2], 298.15 K, x1 = 0.1006 | 738.55 | –
[2], 298.15 K, x1 = 0.1961 | 762.73 | –
[2], 298.15 K, x1 = 0.2461 | 775.58 | –
[2], 298.15 K, x1 = 0.2982 | 789.07 | –
[2], 298.15 K, x1 = 0.3979 | 815.17 | –
[2], 298.15 K, x1 = 0.4995 | 842.12 | –
[2], 298.15 K, x1 = 0.5939 | 867.4 | –
[2], 298.15 K, x1 = 0.6986 | 895.69 | –
[2], 298.15 K, x1 = 0.7979 | 922.84 | –
[2], 298.15 K, x1 = 0.9022 | 951.81 | –
[2], 298.15 K, x1 = 0.95 | 965.31 | –
[2], 303.15 K, x1 = 0.0982 | 733.94 | –
[2], 303.15 K, x1 = 0.2002 | 759.61 | –
[2], 303.15 K, x1 = 0.2485 | 771.99 | –
[2], 303.15 K, x1 = 0.2996 | 785.17 | –
[2], 303.15 K, x1 = 0.3994 | 811.21 | –
[2], 303.15 K, x1 = 0.495 | 836.5 | –
[2], 303.15 K, x1 = 0.5989 | 864.2 | –
[2], 303.15 K, x1 = 0.6998 | 891.41 | –
[2], 303.15 K, x1 = 0.8005 | 918.9 | –
[2], 303.15 K, x1 = 0.8999 | 946.47 | –
[2], 303.15 K, x1 = 0.9499 | 960.53 | –
[2], 308.15 K, x1 = 0.0977 | 729.91 | –
[2], 308.15 K, x1 = 0.1975 | 754.98 | –
[2], 308.15 K, x1 = 0.2469 | 767.58 | –
[2], 308.15 K, x1 = 0.2964 | 780.35 | –
[2], 308.15 K, x1 = 0.3944 | 805.91 | –
[2], 308.15 K, x1 = 0.4956 | 832.62 | –
[2], 308.15 K, x1 = 0.5976 | 859.8 | –
[2], 308.15 K, x1 = 0.6967 | 886.45 | –
[2], 308.15 K, x1 = 0.7937 | 912.91 | –
[2], 308.15 K, x1 = 0.9021 | 942.91 | –
[2], 308.15 K, x1 = 0.9497 | 956.38 | –
[2], 318.15 K, x1 = 0.0998 | 722.15 | –
[2], 318.15 K, x1 = 0.1975 | 746.41 | –
[2], 318.15 K, x1 = 0.2484 | 759.29 | –
[2], 318.15 K, x1 = 0.3021 | 773.02 | –
[2], 318.15 K, x1 = 0.3883 | 795.32 | –
[2], 318.15 K, x1 = 0.4998 | 824.5 | –
[2], 318.15 K, x1 = 0.5991 | 850.79 | –
[2], 318.15 K, x1 = 0.6998 | 877.63 | –
[2], 318.15 K, x1 = 0.799 | 904.47 | –
[2], 318.15 K, x1 = 0.9009 | 932.54 | –
[2], 318.15 K, x1 = 0.9498 | 946.28 | –
[2], 328.15 K, x1 = 0.0998 | 713.9 | –
[2], 328.15 K, x1 = 0.1975 | 737.96 | –
[2], 328.15 K, x1 = 0.2484 | 750.75 | –
[2], 328.15 K, x1 = 0.3021 | 764.37 | –
[2], 328.15 K, x1 = 0.3883 | 786.52 | –
[2], 328.15 K, x1 = 0.4998 | 815.5 | –
[2], 328.15 K, x1 = 0.5991 | 841.63 | –
[2], 328.15 K, x1 = 0.6998 | 868.32 | –
[2], 328.15 K, x1 = 0.799 | 894.99 | –
[2], 328.15 K, x1 = 0.9009 | 922.95 | –
[2], 328.15 K, x1 = 0.95 | 936.74 | –

Source: the NIST ThermoML archive (doi:10.1016/j.jct.2004.08.003)
